“Also recorded” adds a separate entry of the source. Where two headings read alike, the source gives them in different places.
Experiments:
[1] = test system: Src/Fyn effects on fast axonal transport; assay: Isolated axoplasm: blocking of Src/Fyn effects on fast axonal transport; type: cell-based, squid Loligo pealeii; conditions: for blocking of Src/Fyn actions on fast axonal transport: concentration not given
Protocol: (§1) Axoplasm was extruded from giant axons of the squid Loligo pealeii (Marine Biological Laboratory) according to established methods (Brady, et al. (1985) Cell Motil. 5(2):81-101). Axons were 400-600 μm in diameter and provided ≈5 μl of axoplasm per axon. Wild-type α-synuclein or α-synuclein with point mutations associated with familial Parkinson's disease (Ala30Pro or Ala53Thr), MPP+, enzymes or inhibitors were diluted into X/2 buffer (175 mM potassium aspartate, 65 mM taurine, 35 mM betaine, 25 mM glycine, 10 mM HEPES, 6.5 mM MgCl2, 5 mM EGTA, 1.5 mM CaCl2, 0.5 mM glucose, pH 7.2) supplemented with 2-5 mM ATP and 20 μl of this mix was added to perfusion chambers (Brady, et al. (1985) supra). Preparations were analyzed on a ZEISS AXIOMAT with a 100×, 1.3 na objective, and DIC optics. Hamamatsu Argus 20 and Model 2400 CCD camera were used for image processing and analysis. Organelle velocities were measured with a Photonics Microscopy C2117 video manipulator (Hamamatsu).
Screening of nonreceptor tyrosine kinases included Src- and Abl-family members. […] Given that neither kinesin nor dynein are known to have tyrosine phosphorylations, the ability of a broad spectrum PKC inhibitor Gö6976 was included in the assay to block the action of Fyn. Gö6976 inhibition of PKC abolished actions of Src/Fyn on fast axonal transport (FIG. 1D), as did perfusion of the MARCKS peptide.

[2] = test system: Ala30Pro mutant α-synuclein induced failure of neurotransmission; assay: Squid giant synapse: prevention of Ala30Pro α-synuclein induced failure of neurotransmission; type: cell-based; conditions: co-injection / coperfusion with Ala30Pro α-synuclein
Protocol: If they both work by activating PKC and increasing retrograde transport, they might affect availability of synaptic vesicle components in presynaptic terminals. Accordingly, either wild-type α-synuclein, Ala30Pro α-synuclein, or MPP+ were injected into the presynaptic side of the squid giant synapse as described for synaptic vesicles and synapsin (McGuinness, et al. (1989) J. Neurosci. 9:4138-4149; Llinas, et al. (1989) Proc. Nat. Acad. Sci. USA 86:5656-5660). This preparation has been used to evaluate the effects of reagents on presynaptic function by injecting, then stimulating the presynaptic side while recording intracellularly on both pre- and post-synaptic sides (Llinas, et al. (2004) Proc. Natl. Acad. Sci. USA 101:17855-60; Sugimori, et al. (1998) Neuroscience 86:39-51).

phosphorylation of DIC = assay: NGF/BDNF (Trk receptor) induced shift of dynein intermediate chain; type: cell-based; conditions: Trk neurotrophin receptors; Gö6976 at 100 nM
Source text: Specifically, NGF and BDNF binding to Trk neurotrophin receptors caused a shift in the apparent molecular weight of dynein intermediate chain (DIC). To identify the kinase pathway involved in this change, more than 30 different kinase and phosphatase inhibitors were screened.

[3] = test system: MPP+ effects on fast axonal transport; assay: Isolated axoplasm: blocking of MPP+ effects on fast axonal transport; type: cell-based, squid Loligo pealeii; conditions: FIG. 5B
Protocol: as §1
(§2) MPTP/MPP+ is the best characterized example of toxin-induced Parkinson's disease. The effects of MPP+ on fast axonal transport were examined in axoplasm as was dynein phosphorylation in cells. […] Based on reports that MPP+ could activate caspase3 (Turmel, et al. (2001) Mov. Disord. 16:185-9) and that caspase3 can activate a PKC by proteolytic cleavage (Kaul, et al. (2003) Eur. J. Neurosci. 18:1387-401), the ability of a caspase3 inhibitor to block effects of MPP+ on fast axonal transport was evaluated. […] Further, perfusion with Caspase 3 affected retrograde transport in a manner similar to PKC and MPP+ (retrograde transport=1.462±0.016 μm/sec).

DIC phosphorylation [4] = assay: Labeling studies with MPP+ treated cortical neurons; type: cell-based; conditions: MPP+ treated cortical neurons
Protocol: One mCi ^32P phosphate (ICN) was added per dish and incubated for 4 hours. Medium was discarded, cells homogenized in 1 ml of ROLB buffer and processed accordingly to standard methods (Morfini, et al. (2004) supra). Axoplasms were prepared as for video microscopy, but 1 mCi of γ-^32P-ATP was added. After 50 minutes incubation, axoplasms were homogenized in ROLB buffer. A 10 μl aliquot of lysate was precipitated with 15% TCA and radioactivity incorporated into protein determined by scintillation counting. Aliquots of equal counts were used for kinesin immunoprecipitation with 10 μg of 74.1 antibody and Protein G-agarose beads (Pierce). Immunoprecipitates were separated by SDS-PAGE, dried and exposed in a PHOSPHORIMAGER cassette, then scanned and quantified on a TYPHOON (Amersham/Molecular Dynamics).
as §2

[5] = test system: α-synuclein mutant Ala30Pro effects on fast axonal transport; assay: Isolated axoplasm: blocking of mutant α-synuclein (Ala30Pro) effects on fast axonal transport; type: cell-based, squid Loligo pealeii; conditions: coperfused with α-synuclein mutant Ala30Pro, FIG. 3
Protocol: as §1
Accordingly, these inhibitors were coperfused with pathological α-synuclein mutant Ala30Pro and fast axonal transport was monitored. […] Similarly, the effects of α-synuclein mutant Ala30Pro could be blocked by a PKCmu peptide substrate (FIG. 3B) and an inhibitor of Src-Family Tyrosine Kinases (PP2) (FIG. 3C).

DIC phosphorylation [6] = assay: Reelin receptor stimulated DIC phosphorylation; type: cell-based
[7] = test system: LB filaments (wild-type α-synuclein) effects on fast axonal transport; assay: Isolated axoplasm: blocking of LB filament effects on fast axonal transport; type: cell-based, squid Loligo pealeii; conditions: FIG. 4B
Protocol: as §1
Plasmids containing wild-type α-synuclein; Ala30Pro α-synuclein and Ala53Thr α-synuclein for conventional expression in bacteria were used to generate synuclein protein used in axoplasm and squid giant synapse preparations. […] The ability of LB filaments to affect retrograde axonal transport in isolated axoplasm was evaluated, as were the effects of wild-type LB filaments on kinases.

PKCμ = target: T1, PKCμ (Homo sapiens, UniProt Q15139); conditions: cited from earlier work
T1 sequence (Q15139 1-912): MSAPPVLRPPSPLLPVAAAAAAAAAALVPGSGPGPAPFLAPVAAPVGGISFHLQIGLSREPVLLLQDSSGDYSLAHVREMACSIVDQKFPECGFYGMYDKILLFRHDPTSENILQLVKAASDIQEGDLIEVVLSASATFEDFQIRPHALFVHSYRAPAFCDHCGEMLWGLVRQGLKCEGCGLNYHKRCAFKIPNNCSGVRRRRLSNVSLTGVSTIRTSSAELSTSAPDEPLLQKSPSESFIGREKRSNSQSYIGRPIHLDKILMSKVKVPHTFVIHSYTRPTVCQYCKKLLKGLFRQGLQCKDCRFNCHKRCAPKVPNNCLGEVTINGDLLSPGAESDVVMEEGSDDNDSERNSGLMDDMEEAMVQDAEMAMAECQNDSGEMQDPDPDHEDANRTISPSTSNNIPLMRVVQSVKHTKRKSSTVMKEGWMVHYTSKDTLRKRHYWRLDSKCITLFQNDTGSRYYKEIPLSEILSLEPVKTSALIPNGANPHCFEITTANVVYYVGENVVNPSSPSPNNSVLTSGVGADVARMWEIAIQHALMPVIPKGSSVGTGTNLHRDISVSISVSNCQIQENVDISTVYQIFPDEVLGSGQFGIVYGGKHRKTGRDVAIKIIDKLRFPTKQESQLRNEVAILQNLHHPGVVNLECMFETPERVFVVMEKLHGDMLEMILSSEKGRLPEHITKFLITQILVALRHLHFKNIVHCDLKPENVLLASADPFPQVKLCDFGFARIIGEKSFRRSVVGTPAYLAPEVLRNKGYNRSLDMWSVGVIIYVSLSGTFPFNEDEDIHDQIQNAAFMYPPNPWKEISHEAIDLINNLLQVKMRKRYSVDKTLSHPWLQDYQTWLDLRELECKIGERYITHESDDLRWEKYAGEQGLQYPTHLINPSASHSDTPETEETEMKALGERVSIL

PKCγ = PKCγ (Homo sapiens, UniProt P05129); conditions: cited from earlier work
PKCζ = target: T2, PKCζ (Homo sapiens, UniProt Q05513); conditions: cited from earlier work
T2 sequence (Q05513 1-592): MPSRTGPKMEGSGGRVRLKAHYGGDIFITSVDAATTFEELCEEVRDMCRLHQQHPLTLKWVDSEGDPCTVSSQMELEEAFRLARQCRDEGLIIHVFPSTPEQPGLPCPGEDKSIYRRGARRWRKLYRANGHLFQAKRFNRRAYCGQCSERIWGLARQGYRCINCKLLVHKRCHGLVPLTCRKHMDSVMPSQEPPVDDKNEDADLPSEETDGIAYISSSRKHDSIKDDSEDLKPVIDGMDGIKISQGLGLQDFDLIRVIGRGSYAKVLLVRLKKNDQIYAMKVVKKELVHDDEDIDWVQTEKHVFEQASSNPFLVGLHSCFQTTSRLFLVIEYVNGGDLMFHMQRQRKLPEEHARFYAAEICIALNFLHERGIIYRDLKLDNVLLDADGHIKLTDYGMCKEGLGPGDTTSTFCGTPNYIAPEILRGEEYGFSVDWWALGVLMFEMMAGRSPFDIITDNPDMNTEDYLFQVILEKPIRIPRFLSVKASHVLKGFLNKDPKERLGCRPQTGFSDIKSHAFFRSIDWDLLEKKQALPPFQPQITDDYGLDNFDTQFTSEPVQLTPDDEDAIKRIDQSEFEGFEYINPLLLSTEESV

PKCδ = PKCδ (Homo sapiens, UniProt Q05655); conditions: cited from earlier work
PKCβ = PKCβ (Homo sapiens, UniProt P05771); conditions: cited from earlier work
PKCα = PKCα (Homo sapiens, UniProt P17252); conditions: cited from earlier work
PKD [8] = target: T3, PKD (Homo sapiens, UniProt Q15139); conditions: read-out: PKD autophosphorylation IC50; cited from earlier work
T3 sequence (Q15139 1-912): T1 sequence (Q15139 1-912)

PKD [9] = target: T3, PKD; conditions: read-out: PKD phosphorylation of the exogenous substrate syntide-2 IC50; cited from earlier work
[10] = test system: cPKC-alpha, cPKC-beta, cPKC-gamma, nPKC-delta and nPKC-epsilon, and aPKC-zeta; conditions: cited from earlier work
fast axonal transport = assay: Motility studies in isolated axoplasm: effect of perfused substance on fast axonal transport; type: cell-based, squid Loligo pealeii; conditions: substance perfused alone into isolated axoplasm
Protocol: as §1

PKCδ, sequence (Q05655 whole entry): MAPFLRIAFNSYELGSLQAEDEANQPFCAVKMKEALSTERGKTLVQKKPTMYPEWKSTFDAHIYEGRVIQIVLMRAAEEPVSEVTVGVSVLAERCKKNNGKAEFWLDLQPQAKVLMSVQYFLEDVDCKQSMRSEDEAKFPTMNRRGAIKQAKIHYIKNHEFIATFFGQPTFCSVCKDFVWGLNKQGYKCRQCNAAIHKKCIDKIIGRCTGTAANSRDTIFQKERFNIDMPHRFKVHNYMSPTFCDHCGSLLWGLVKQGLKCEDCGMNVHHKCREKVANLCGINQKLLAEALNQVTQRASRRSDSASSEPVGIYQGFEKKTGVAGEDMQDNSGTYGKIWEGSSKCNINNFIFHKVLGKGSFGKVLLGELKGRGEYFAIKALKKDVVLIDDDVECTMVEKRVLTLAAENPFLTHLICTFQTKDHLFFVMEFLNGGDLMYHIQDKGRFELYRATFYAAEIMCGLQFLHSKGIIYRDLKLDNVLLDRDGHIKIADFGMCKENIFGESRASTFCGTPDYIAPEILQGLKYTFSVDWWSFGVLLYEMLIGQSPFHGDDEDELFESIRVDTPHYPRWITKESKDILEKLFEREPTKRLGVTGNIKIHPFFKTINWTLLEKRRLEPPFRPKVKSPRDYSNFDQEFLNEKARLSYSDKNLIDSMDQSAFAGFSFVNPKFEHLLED
PKCβ, sequence (P05771 whole entry, species assumed): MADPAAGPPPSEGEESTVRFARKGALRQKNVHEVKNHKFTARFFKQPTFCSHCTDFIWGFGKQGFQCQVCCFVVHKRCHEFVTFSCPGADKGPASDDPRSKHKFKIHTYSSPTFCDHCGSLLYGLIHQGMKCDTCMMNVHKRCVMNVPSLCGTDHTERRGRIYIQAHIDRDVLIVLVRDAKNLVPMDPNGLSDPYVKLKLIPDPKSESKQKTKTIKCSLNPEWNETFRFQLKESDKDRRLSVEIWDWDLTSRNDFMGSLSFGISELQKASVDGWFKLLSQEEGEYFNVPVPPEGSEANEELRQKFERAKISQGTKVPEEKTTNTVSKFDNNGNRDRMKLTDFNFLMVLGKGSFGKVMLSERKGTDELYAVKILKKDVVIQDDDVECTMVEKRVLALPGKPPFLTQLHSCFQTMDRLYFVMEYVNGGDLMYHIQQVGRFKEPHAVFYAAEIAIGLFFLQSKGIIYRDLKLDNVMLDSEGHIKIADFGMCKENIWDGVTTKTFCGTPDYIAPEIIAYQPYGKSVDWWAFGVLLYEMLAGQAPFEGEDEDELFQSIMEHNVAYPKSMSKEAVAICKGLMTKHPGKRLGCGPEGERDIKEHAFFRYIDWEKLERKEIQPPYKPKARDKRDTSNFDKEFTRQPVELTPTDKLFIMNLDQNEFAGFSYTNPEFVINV

Compound	blocking of Src/Fyn actions on fast axonal transport [1]	prevention of Ala30Pro α-synuclein effect on neurotransmission [2]	blocking of NGF/BDNF induced shift (phosphorylation) of DIC (phosphorylation of DIC)	blocking of MPP+ effects on fast axonal transport [3]	blocking of familial Parkinson's disease mutant α-synuclein (Ala30Pro) effects on fast axonal transport [5]	blocking of LB filament (wild-type α-synuclein) effects on fast axonal transport [7]	further results
Cn1c2ccccc2c2c3c(c4c5ccccc5n(CCC#N)c4c21)CNC3=O [Gö6976, 5,6,7,13-Tetrahydro-13-methyl-5-oxo-12H-indolo[2,3-a]pyrrolo[3,4-c]carbazole-12-propanenitrile]	inhibited; also recorded: abolished	prevented	able to block	blocked	effective at blocking; also recorded: prevented	blocked	blocking of Fyn effects on fast axonal transport ([1]; 100 nM inhibitor, FIG. 1D): blocked; blocking of MPP+ induced increase in DIC phosphorylation (DIC phosphorylation [4]): blocked; blocking of Reelin receptor stimulated increase in DIC phosphorylation (DIC phosphorylation [6]): blocked
COc1ccc2c(c1)c(C1=C(c3c[nH]c4ccccc34)C(=O)NC1=O)cn2CCCN(C)C [Gö6983]	did not block	not effective	failed to block	blocked	ineffective; also recorded: not effective	–	IC50 (PKCμ): 20 µM; IC50 (PKCγ): 6 nM; IC50 (PKCζ): 60 nM; IC50 (PKCδ): 10 nM; IC50 (PKCβ): 7 nM; IC50 (PKCα): 7 nM
CC(C)(C)n1nc(-c2ccc(Cl)cc2)c2c(N)ncnc21 [PP2, 4-amino-5-(4-chlorophenyl)-7-(t-butyl) pyrazolo[3,4-d-]pyrimidine]	–	prevented	–	did not	effective at blocking; also recorded: blocked	blocked	–
Oc1ccc(C=Cc2cc(O)cc(O)c2)cc1 [resveratrol]	–	–	–	–	–	–	IC50 (PKD [8]): 52 µM; IC50 (PKD [9]): 36 µM; effects against the autophosphorylation reactions of PKC isozyme subfamily members [10]: negligible effects
Fyn: Src-Family nonreceptor tyrosine kinase perfused into axoplasm	–	–	–	–	–	–	effect on fast axonal transport (retrograde RT / anterograde AT), in words (fast axonal transport): indistinguishable from the effects of PKCs; also recorded: a rapid increase in the amount and rate of retrograde transport accompanied by a slow decline in anterograde transport
